Patent US10179769B2, “Histone demethylase inhibitors” (CELGENE QUANTICEL RESEARCH, INC., priority 2012, dated 2019)

Biological target: JMJD2C (Homo sapiens (Human), UniProt Q9H3R0)
Assay: JMJD2C TR-FRET enzyme inhibition assay
Type: biochemical
Conditions: H3K9me3-biotin peptide
Text: This assay determines the ability of a test compound to inhibit Jarid1A, Jarid1B, and JMJD2C demethylase activity. Baculovirus expressed Jarid1A (GenBank Accession #NM_001042603, AA1-1090) was purchased from BPS Bioscience (Cat#50110). Baculovirus expressed Jarid1B (GenBank Accession #NM_006618, AA 2-751) was purchased from BPS Bioscience (Cat #50121) or custom made by MolecularThroughput. Baculovirus-expressed JMJD2C (GenBank Accession #BC143571, AA 2-372) was purchased from BPS Bioscience (Cat#50105).
The ability of test compounds to inhibit the activity of JMJD2C was determined in 384-well plate format under the following reaction conditions: 0.3 nM JMJD2C, 300 nM H3K9me3-biotin labeled peptide (Anaspec cat #64360), 2 μM alpha-ketoglutaric acid in assay buffer of 50 mM HEPES, pH7.3, 0.005% Brij35, 0.5 mM TCEP, 0.2 mg/ml BSA, 50 μM sodium L-ascorbate, and 2 μM ammonium iron(II) sulfate. Reaction product was determined quantitatively by TR-FRET after the addition of detection reagent Phycolink Streptavidin-allophycocyanin (Prozyme) and Europium-anti-di-methylated histone H3 lysine 9 (H3K9me2) antibody (PerkinElmer) in the presence of 5 mM EDTA in LANCE detection buffer (PerkinElmer) at a final concentration of 50 nM and 1 nM, respectively.
The reaction mixture was incubated at room temperature for 30 min, and terminated by the addition of 6 μl of 5 mM EDTA in LANCE detection buffer containing 100 nM Phycolink Streptavidin-allophycocyanin and 2 nM Europium-anti-H3K9me2 antibody. Plates were read by EnVisionMultilabel Reader in TR-FRET mode (excitation at 320 nm, emission at 615 nm and 665 nm) after 1 hr incubation at rt. A ratio was calculated (665/615) for each well and fitted to determine inhibition constant (IC50).

Chain of JMJD2C (Q9H3R0 2-372): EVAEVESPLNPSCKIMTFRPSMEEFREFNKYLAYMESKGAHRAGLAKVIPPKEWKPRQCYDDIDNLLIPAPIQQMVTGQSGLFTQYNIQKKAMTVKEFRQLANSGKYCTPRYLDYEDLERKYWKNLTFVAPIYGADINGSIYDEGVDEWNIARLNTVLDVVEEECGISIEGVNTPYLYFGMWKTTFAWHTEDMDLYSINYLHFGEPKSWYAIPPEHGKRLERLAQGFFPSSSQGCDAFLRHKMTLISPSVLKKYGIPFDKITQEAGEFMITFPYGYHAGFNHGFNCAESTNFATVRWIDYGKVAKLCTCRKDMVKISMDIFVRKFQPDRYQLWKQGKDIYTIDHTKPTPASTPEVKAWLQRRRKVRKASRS

Substance	IC50
3-{[(6-chloro-1,2,3,4-tetrahydronaphthalen- 1-yl)methyl]-amino}pyridine-4- carboxylic acid [Example 68]	100 to 1000 nM
3-{[(6-chloro-1-hydroxy-1,2,3,4- tetrahydronaphthalen-1-yl)methyl]amino} pyridine-4-carboxylic acid [Example 67]	100 to 1000 nM
3-{[(7-fluoro-3,4-dihydro-2H-chromen-4- yl)methyl]-amino}pyridine-4-carboxylic acid [Example 65]	< 100 nM
